Laboratory results taken from patent US8247211B2, “Glycopeptide antibiotics” (American Cyanamid Company, priority 2001, dated 2012).
Converted amounts (≈) assume the structure as drawn. Numbered stars: 1 amine (or outer) side, 2 acyl side, 3 side chain; on linkers, the order of the positions; unused ones are H or OH. Square brackets hold non-standard residues; d marks the D form. Peptide text beside a SMILES is read from it. ξ: configuration not given here. X1 = N=C1NCC(C(O)C(N[*:1])C(=O)[*:2])N1C1OC(CO)C(O)C(O)C1O; ξEnduracididine(βξ-OH,4'ξ) = N=C1NCC(C(O)C(N)C(=O)O)N1; ξPhe(βξ-Me) = CC(c1ccccc1)C(N)C(=O)O

Columns and labels:
[1] = Anatomic pathology (heart and kidney histopathology) in mice; type: in vivo, CD-1 mice; settings: 20 mg/kg intravenously daily for 9 days, microscopic histopathology on day 10
Protocol: 20-day-old CD-1 mice were divided into a vehicle control group (5 mice) and a treatment group (5 mice). Samples of glycopeptide antibiotics were administered at 20 mg/kg intravenously daily for 9 days.
Samples of tissues from necropsied mice were formalin-fixed, paraffin-embedded, sectioned, stained with hematoxylin and eosin, and examined microscopically. Histopathologic findings were recorded. These findings were subjectively graded on a scale corresponding to slight, mild, moderate, marked and severe as compared to untreated controls.

[2] = tested on: Staphylococcus aureus-SMITH (GC 4543); assay: Acute lethal infection in mice (ED50); type: in vivo; settings: female CD-1 mice, intraperitoneal challenge, intravenous dose 30 min. after infection, 7 day survival ratios
Protocol: The therapeutic effects of glycopeptide antibiotics of Formula I are determined against acute lethal infections with S. aureus (strain Smith), a penicillin resistant strain of S. pneumoniae (strain GC 1894), and a vancomycin resistant strain of E. fecalis (strain GC 6189 and GC 2246). Female mice, CD-1 (Charles River Laboratories), 20 +1-2 gm, are challenged by intraperitoneal injection of sufficient bacteria (suspended in Trypticase Soy Broth or hog gastric mucin) to kill non-treated controls within 24-48 hr. Antibacterial agents, contained in 0.2 mL of saline or 5% dextrose solution, are administered intravenously 30 min. after infection. Five mice are treated at each dose level. The 7 day survival ratios from 3 separate tests are pooled for calculation of median effective dose (ED50).

Streptococcus sp. = assay: In vitro antibacterial evaluation: minimum inhibitory concentration (MIC), broth dilution method; type: cell-based
Method in brief: (§1)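 Inoculum: 5×10^5 CFU/mL. Range: 64-0.06 μg/mL. Medium: Muller-Hinton II […]; NCCLS M7-A2 broth dilution. Endpoint: lowest concentration inhibiting growth. Strains include methicillin-, penicillin- and/or vancomycin-resistant clinical isolates.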

Escherichia coli = assay: as above; type: cell-based; settings: for MIC Escherichia coli (GC 4560): strain GC 4560; for MIC Escherichia coli (GC 4559): strain GC 4559
Method in brief: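 NCCLS M7-A2 broth dilution; Muller-Hinton II […]; 5×10^5 CFU/mL; 64-0.06 μg/mL. MIC = lowest concentration with no growth.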

Enterococcus sp. = assay: as above; type: cell-based; settings: for MIC Enterococcus faecium (GC 4557): strain GC 4557; for MIC Enterococcus faecalis (ATCC 29212): strain ATCC 29212; for MIC Enterococcus faecalis (GC 4552): strain GC 4552
Method in brief: as §1

Staphylococcus sp. = assay: as above; type: cell-based; settings: for MIC Coagulase Negative Staphylococcus (GC 4537): strain GC 4537; for MIC Coagulase Negative Staphylococcus (GC 4538): strain GC 4538; for MIC Staphylococcus aureus-SMITH (GC 4536): strain SMITH GC 4536
Method in brief: as §1

[3] = Streptococcus pneumoniae (GC 1894), broth dilution, 18 hours at 35° C.
[4] = broth dilution, 18 hours at 35° C.

SMILES: N=C1NCC(C(O)C2NC(=O)[C@H](C(O)C3CNC(=N)N3)NC(=O)C(Cc3ccc(O)cc3)NC(=O)[C@H](Cc3ccccc3)NC(=O)CNC(=O)[C@H](CO)NC2=O)N1 (stereo in doubt) [Example 280a, Cyclo[glycylphenylalanyltyrosyl-3-(2-iminoimidazolidin-4-yl)seryl-3-(2-iminoimidazolidin-4-yl)serylseryl]]
- Anatomical Pathology (Day 10), Heart [1]: 0
- Anatomical Pathology (Day 10), Kidney [1]: ++

SMILES: CC(c1ccccc1)C1NC(=O)CNC(=O)C(CO)NC(=O)C(C(O)C2CNC(=N)N2C2OC(CO)C(O)C(O)C2O)NC(=O)C(C(O)C2CNC(=N)N2)NC(=O)C(Cc2ccc(O)cc2)NC1=O (stereo not drawn) [Example 55, Cyclo[glycyl-β-methylphenylalanyltyrosyl-3-(2-iminoimidazolidin-4-yl)seryl-3-(3-hexopyranosyl-2-iminoimidazolidin-4-yl)serylseryl]] (cyclo(G[ξPhe(βξ-Me)]Y[ξEnduracididine(βξ-OH,4'ξ)][X1]S); configuration not given here)
- median effective dose (ED50), Staphylococcus aureus-SMITH (GC 4543) [2]: >8

SMILES: CC(c1ccccc1)C1NC(=O)CNC(=O)C(CO)NC(=O)C(C(O)C2CN(Cc3ccccc3)C(=NCc3ccccc3)N2C2OC(CO)C(O)C(O)C2O)NC(=O)C(C(O)C2CN(Cc3ccccc3)C(=NCc3ccccc3)N2Cc2ccccc2)NC(=O)C(Cc2ccc(OC3OC(CO)C(OC4OC(CO)C(O)C(O)C4O)C(O)C3O)cc2)NC1=O (stereo not drawn) [Example 62, Cyclo[glycyl-β-methylphenylalanyl-O-(4-O-hexopyranosylhexopyranosyl)tyrosyl-3-[1,3-dibenzyl-2-(benzylimino)imidazolidin-4-yl]seryl-3-[1-benzyl-2-(benzylimino)-3-hexopyranosylimidazolidin-4-yl]serylseryl]]
- MIC Streptococcus pneumoniae (GC 1894) (Streptococcus sp.; [3]): 64 µg/mL (≈ 36.7 µM)
- MIC Streptococcus pneumoniae (GC 1894) (Streptococcus sp.; strain GC 1894): 64 µg/mL (≈ 36.7 µM)
- MIC Escherichia coli (GC 4560) (Escherichia coli): 4 µg/mL (≈ 2.29 µM)
- MIC Enterococcus faecium (GC 4557) (Enterococcus sp.): 64 µg/mL (≈ 36.7 µM)
- median effective dose (ED50), Staphylococcus aureus-SMITH (GC 4543) [2]: >8

SMILES: CC(c1ccccc1)C1NC(=O)CNC(=O)C(CO)NC(=O)C(CC2CN(Cc3ccccc3)C(=NCc3ccccc3)N2C2OC(CO)C(O)C(O)C2O)NC(=O)C(CC2CN(Cc3ccccc3)C(=NCc3ccccc3)N2Cc2ccccc2)NC(=O)C(Cc2ccc(OC3OC(CO)C(OC4OC(CO)C(O)C(O)C4O)C(O)C3O)cc2)NC1=O (stereo not drawn) [Example 73, Cyclo[3-[1,3-benzyl-2-(benzylimino)imidazolidin-4-yl]alanyl-3-[1-benzyl-2-(benzylimino)-3-hexopyranosylimidazolidin-4-yl]alanylserylglycyl-β-methylphenylalanyl-O-(4-O-hexopyranosylhexopyranosyl)tyrosyl]]
- MIC Streptococcus pneumoniae (GC 1894) (Streptococcus sp.; [3]): 64 µg/mL (≈ 37.3 µM)
- MIC Streptococcus pneumoniae (GC 1894) (Streptococcus sp.; strain GC 1894): 64 µg/mL (≈ 37.3 µM)
- MIC Escherichia coli (GC 4560) (Escherichia coli): 16 µg/mL (≈ 9.34 µM)
- median effective dose (ED50), Staphylococcus aureus-SMITH (GC 4543) [2]: >8

SMILES: CC(c1ccccc1)C1NC(=O)CNC(=O)C(CO)NC(=O)C(C(O)C2CNC(=NCc3ccccc3)N2C2OC(CO)C(O)C(O)C2O)NC(=O)C(C(O)C2CNC(=N)N2)NC(=O)C(Cc2ccc(OC3OC(CO)C(OC4OC5COC6(OC5C(O)C4O)C4CC5CC(C4)CC6C5)C(O)C3O)cc2)NC1=O (stereo not drawn) [Example 76, Cyclo[glycyl-β-methylphenylalanyl-O-[4-O-[4,6-O-(2-adamantylidene)hexopyranosyl]hexopyranosyl]tyrosyl-3-(2-iminoimidazolidin-4-yl)seryl-3-[2-(benzylimino)-3-hexopyranosylimidazolidin-4-yl]serylseryl]]
- Anatomical Pathology (Day 10), Heart [1]: 0
- Anatomical Pathology (Day 10), Kidney [1]: ++
- MIC Coagulase Negative Staphylococcus (GC 4547) (Staphylococcus sp.; [4]): 2 to 4 µg/mL
- MIC Coagulase Negative Staphylococcus (GC 4548) (Staphylococcus sp.; [4]): 2 to 4 µg/mL
- MIC Coagulase Negative Staphylococcus (GC 4549) (Staphylococcus sp.; [4]): 2 to 4 µg/mL
- MIC Coagulase Negative Staphylococcus (GC 4551) (Staphylococcus sp.; [4]): 2 to 8 µg/mL
- MIC Coagulase Negative Staphylococcus (GC 6257) (Staphylococcus sp.; [4]): 0.5 to 2 µg/mL
- MIC Staphylococcus aureus (ATCC 29213) (Staphylococcus sp.; [4]): 2 to 8 µg/mL
- MIC Staphylococcus aureus (GC 1131) (Staphylococcus sp.; [4]): 4 to 8 µg/mL
- MIC Staphylococcus aureus (GC 3051) (Staphylococcus sp.; [4]): 2 to 8 µg/mL
- MIC Staphylococcus aureus (GC 3053) (Staphylococcus sp.; [4]): 2 to 8 µg/mL
- MIC Staphylococcus aureus (GC 4541) (Staphylococcus sp.; [4]): 2 to 4 µg/mL
- MIC Staphylococcus aureus (GC 4542) (Staphylococcus sp.; [4]): 2 to 8 µg/mL
- MIC Staphylococcus aureus (GC 4544) (Staphylococcus sp.; [4]): 4 to 8 µg/mL
- MIC Staphylococcus aureus (GC 4545) (Staphylococcus sp.; [4]): 2 to 8 µg/mL
- MIC Staphylococcus aureus SMITH (GC 4543) (Staphylococcus sp.; [4]): 1 to 4 µg/mL
- MIC Staphylococcus haemolyticus (GC 4546) (Staphylococcus sp.; [4]): 2 to 4 µg/mL
- MIC Staphylococcus aureus-SMITH (GC 4543) (Staphylococcus sp.; strain SMITH GC 4543, broth dilution, 18 hours at 35° C.): 1 to 4 µg/mL
- MIC Escherichia coli (GC 4560) (Escherichia coli): 2 to 4 µg/mL
- MIC Enterococcus faecium (GC 2243) (Enterococcus sp.; strain GC 2243): 2 to 8 µg/mL
- MIC Enterococcus faecalis (GC 4553) (Enterococcus sp.; strain GC 4553): 4 to 8 µg/mL
- MIC Enterococcus faecium (GC 4557) (Enterococcus sp.): 1 to 2 µg/mL
- MIC Enterococcus avium (GC 4558) (Enterococcus sp.; strain GC 4558): 2 to 8 µg/mL

SMILES: CCCCCC(=O)OCC1OC(OC2C(CO)OC(Oc3ccc(CC4NC(=O)C(C(C)c5ccccc5)NC(=O)CNC(=O)C(CO)NC(=O)C(C(O)C5CNC(=N)N5C5OC(CO)C(O)C(O)C5O)NC(=O)C(C(O)C5CNC(=N)N5)NC4=O)cc3)C(O)C2O)C(O)C(O)C1O (stereo not drawn) [Example 95b, Cyclo[glycyl-β-methylphenylalanyl-O-[4-O-(6-O-hexanoylhexopyranosyl)hexopyranosyl]-tyrosyl-3-[2-iminoimidazolidin-4-yl)seryl-3-(3-hexopyranosyl-2-iminoimidazolidin-4-yl)-serylseryl]]
- MIC Staphylococcus aureus (ATCC 29213) (Staphylococcus sp.; [4]): 1 µg/mL (≈ 0.718 µM)
- MIC Staphylococcus aureus (GC 1131) (Staphylococcus sp.; [4]): 1 µg/mL (≈ 0.718 µM)
- MIC Staphylococcus aureus (GC 4535) (Staphylococcus sp.; [4]): 2 µg/mL (≈ 1.44 µM)
- MIC Staphylococcus aureus SMITH (GC 4536) (Staphylococcus sp.; [4]): 1 µg/mL (≈ 0.718 µM)
- MIC Coagulase Negative Staphylococcus (GC 4537) (Staphylococcus sp.): 2 µg/mL (≈ 1.44 µM)
- MIC Coagulase Negative Staphylococcus (GC 4538) (Staphylococcus sp.): 1 µg/mL (≈ 0.718 µM)
- MIC Coagulase Negative Staphylococcus (GC 4547) (Staphylococcus sp.; strain GC 4547): 1 µg/mL (≈ 0.718 µM)
- MIC Staphylococcus aureus-SMITH (GC 4536) (Staphylococcus sp.; [4]): 1 µg/mL (≈ 0.718 µM)
- MIC Escherichia coli (GC 4559) (Escherichia coli): 64 µg/mL (≈ 45.9 µM)
- MIC Escherichia coli (GC 4560) (Escherichia coli): <0.5 µg/mL
- MIC Enterococcus faecalis (GC 2242) (Enterococcus sp.; Enterococcus faecalis (GC 2242), broth dilution, 18 hours at 35° C.): 8 µg/mL (≈ 5.74 µM)
- MIC Enterococcus faecalis (ATCC 29212) (Enterococcus sp.): 4 µg/mL (≈ 2.87 µM)
- MIC Enterococcus faecalis (GC 2242) (Enterococcus sp.; strain GC 2242): 8 µg/mL (≈ 5.74 µM)
- MIC Enterococcus faecalis (GC 4552) (Enterococcus sp.): 8 µg/mL (≈ 5.74 µM)
- median effective dose (ED50), Staphylococcus aureus-SMITH (GC 4543) [2]: 4 mg/kg

SMILES: CCCCCCC(=O)OCC1OC(OC2C(CO)OC(Oc3ccc(CC4NC(=O)C(C(C)c5ccccc5)NC(=O)CNC(=O)C(CO)NC(=O)C(C(O)C5CNC(=N)N5C5OC(CO)C(O)C(O)C5O)NC(=O)C(C(O)C5CNC(=N)N5)NC4=O)cc3)C(O)C2O)C(O)C(O)C1O (stereo not drawn) [Example 97b, Cyclo[glycyl-β-methylphenylalanyl-O-[4-O-(6-O-heptanoylhexopyranosyl)hexopyranosyl]-tyrosyl-3-(2-iminoimidazolidin-4-yl)seryl-3-(3-hexopyranosyl-2-iminoimidazolidin-4-yl)-serylseryl]]
- MIC Staphylococcus aureus (ATCC 29213) (Staphylococcus sp.; [4]): 1 µg/mL (≈ 0.711 µM)
- MIC Staphylococcus aureus (GC 1131) (Staphylococcus sp.; [4]): 1 µg/mL (≈ 0.711 µM)
- MIC Staphylococcus aureus (GC 4535) (Staphylococcus sp.; [4]): 1 µg/mL (≈ 0.711 µM)
- MIC Staphylococcus aureus SMITH (GC 4536) (Staphylococcus sp.; [4]): 0.5 µg/mL (≈ 0.355 µM)
- MIC Coagulase Negative Staphylococcus (GC 4537) (Staphylococcus sp.): 1 µg/mL (≈ 0.711 µM)
- MIC Coagulase Negative Staphylococcus (GC 4537) (Staphylococcus sp.; [4]): 1 µg/mL (≈ 0.711 µM)
- MIC Coagulase Negative Staphylococcus (GC 4538) (Staphylococcus sp.): 1 µg/mL (≈ 0.711 µM)
- MIC Coagulase Negative Staphylococcus (GC 4538) (Staphylococcus sp.; [4]): 1 µg/mL (≈ 0.711 µM)
- MIC Coagulase Negative Staphylococcus (GC 4547) (Staphylococcus sp.; strain GC 4547): 1 µg/mL (≈ 0.711 µM)
- MIC Coagulase Negative Staphylococcus (GC 4547) (Staphylococcus sp.; strain GC 4547, broth dilution, 18 hours at 35° C.): 1 µg/mL (≈ 0.711 µM)
- MIC Staphylococcus aureus-SMITH (GC 4536) (Staphylococcus sp.; [4]): 0.5 µg/mL (≈ 0.355 µM)
- MIC Escherichia coli (GC 4559) (Escherichia coli): 32 µg/mL (≈ 22.7 µM)
- MIC Escherichia coli (GC 4560) (Escherichia coli): 1 µg/mL (≈ 0.711 µM)
- MIC Enterococcus faecalis (ATCC 29212) (Enterococcus sp.): 4 µg/mL (≈ 2.84 µM)
- MIC Enterococcus faecalis (GC 2242) (Enterococcus sp.; strain GC 2242): 2 µg/mL (≈ 1.42 µM)
- MIC Enterococcus faecalis (GC 4552) (Enterococcus sp.): 4 µg/mL (≈ 2.84 µM)
- median effective dose (ED50), Staphylococcus aureus-SMITH (GC 4543) [2]: 8 mg/kg
